From paper PMC12142043, “Cell-based high-content approach for SARS-CoV-2 neutralization identifies unique monoclonal antibodies and PI3K pathway inhibitors” (Frontiers in Cell and Developmental Biology, 2025)
Read-outs that look alike come from different tables or passages of the source.

What was measured:
[1] = tested on: SARS-CoV-2 (USA-WA1/2020) in Calu-3 cells; assay: microbe, parasite or virus in culture; type: cell-based; details: for EC50: Severe acute respiratory syndrome coronavirus 2, Calu-3, 48 h, read-out: EC50 (μM) dsRNA
[2] = tested on: SARS-CoV-2 (USA-WA1/2020) in Calu-3 cells; type: cell-based
[3] = tested on: Calu-3 cells; assay: cells; details: Homo sapiens, Calu-3, read-out: EC50 (μM) Cell count
[4] = […], above 30 μM reported as >30
[5] = high dose (10 µM), Calu-3, 48 h
[6] = low dose (100 nM), Calu-3, 48 h
[7] = fold: cell count EC50 over dsRNA EC50

Row | Compound | dsRNA signal, AU High [2, 5] [AU] | dsRNA signal, AU Low [2, 6] [AU] | further results
1 | COCCOc1cnc2ccn([C@H](C)c3nnc4c(F)cc(-c5cnn(C)c5)cn34)c(=O)c2c1 [AMG 337, reference compound] | 6788.1 | 33845.4 | EC50 (μM) dsRNA [1, 4]: None; EC50 [3]: > 30 µM
2 | O=C(NC1CCNCC1)c1[nH]ncc1NC(=O)c1c(Cl)cccc1Cl [AT7519] | 23488.0 | 46607.1 | EC50 [1, 4]: 1.23 µM; Selectivity index [1, 7]: 0.525; EC50 [3]: 0.646 µM
3 | CC[C@H](Nc1ncnc2[nH]cnc12)c1nc2cccc(F)c2c(=O)n1-c1ccccc1 [CAL-101] | 57616.6 | 3708.3 | EC50 [1, 4]: 0.0521 µM; Selectivity index [1, 7]: >575; EC50 [3]: > 30 µM
4 | N#CCNC(=O)c1ccc(-c2ccnc(Nc3ccc(N4CCOCC4)cc3)n2)cc1 [CYT387] | 36485.3 | 15837.3 | EC50 [1, 4]: 0.0276 µM; Selectivity index [1, 7]: 87.486; EC50 [3]: 2.41 µM
5 | O=S(=O)(c1cccc2cnccc12)N1CCCNCC1 [Fasudil] | – | – | EC50 [1, 4]: 0.0124 µM; Selectivity index [1, 7]: 98.072; EC50 [3]: 1.22 µM
6 | CC(C)NC[C@@H](C(=O)N1CCN(c2ncnc3c2[C@H](C)C[C@H]3O)CC1)c1ccc(Cl)cc1 [GDC-0068, reference compound] | 10110.1 | 18551.4 | EC50 [1, 4]: > 30 µM; EC50 [3]: > 30 µM
7 | O=c1c(-c2ccc(O)cc2)coc2cc(O)cc(O)c12 [Genistein, reference compound] | 5526.1 | 19461.3 | EC50 (μM) dsRNA [1, 4]: None; EC50 [3]: > 30 µM
8 | O=C1Nc2ccccc2/C1=C1/Nc2ccccc2C1=O [Indirubin] | – | – | Selectivity index [1]: >26; EC50 [1]: 1.14 µM; EC50 [3]: > 30 µM
9 | Cc1ccc(F)c(NC(=O)Nc2ccc(-c3cccc4[nH]nc(N)c34)cc2)c1 [Linifanib] | 6252.9 | 21480.2 | EC50 [1, 4]: 20.5 µM; Selectivity index [1, 7]: >1.4; EC50 [3]: > 30 µM
10 | C[C@@H](NC(=O)c1ncnc(N)c1Cl)c1ncc(C(=O)Nc2cc(C(F)(F)F)c(Cl)cn2)s1 [MLN 2480] | – | – | EC50 [1, 4]: 0.0998 µM; Selectivity index [1, 7]: >300; EC50 [3]: > 30 µM
11 | Nc1cccc(-c2cc3c(Oc4cccc(O)c4)ncnc3[nH]2)c1 [TWS119] | 48959.2 | 29417.1 | –
12 | COc1cc2c(N3CCN(C(=O)Nc4ccc(OC(C)C)cc4)CC3)ncnc2cc1OCCCN1CCCCC1.Cl [Tandutinib (MLN518) HCl] | 42444.4 | 13615.8 | –
13 | O=C(NCc1ccccc1)c1csc(Nc2ccncn2)n1 [Thiazovivin] | 2364.1 | 26827.3 | –
14 | O=c1sn(-c2cccc3ccccc23)c(=O)n1Cc1ccccc1 [Tideglusib] | 352.7 | 1603.7 | –
15 | COc1ccc2cc(-c3nc(-c4ccc([S+](C)[O-])cc4)[nH]c3-c3ccncc3)ccc2c1 (stereo not shown) [Tie2 kinase inhibitor] | 4787.9 | 16594.7 | –
16 | COc1cc2nccc(Oc3ccc(NC(=O)Nc4cc(C)on4)c(Cl)c3)c2cc1OC [Tivozanib (AV-951)] | 40142.9 | 36133.0 | –
17 | C[C@@H]1CCN(C(=O)CC#N)C[C@@H]1N(C)c1ncnc2[nH]ccc12.O=C(O)CC(O)(CC(=O)O)C(=O)O [Tofacitinib (CP-690550) Citrate] | 57107.2 | 61115.5 | –
18 | C[C@@H]1CCN(C(=O)CC#N)C[C@@H]1N(C)c1ncnc2[nH]ccc12 [Tofacitinib (CP-690550,Tasocitinib)] | 6571.2 | 4801.5 | –
19 | CCC(=O)N1CCN(c2ccc(-n3c(=O)ccc4cnc5ccc(-c6cnc7ccccc7c6)cc5c43)cc2C(F)(F)F)CC1 [Torin 1] | 1083.7 | 14896.3 | –

Row | Compound | dsRNA signal, AU High [2, 5] [AU] | dsRNA signal, AU Low [2, 6] [AU] | further results
20 | CC(=O)Nc1cccc(-n2c(=O)n(C3CC3)c(=O)c3c(Nc4ccc(I)cc4F)n(C)c(=O)c(C)c32)c1.C[S+](C)[O-] [Trametinib DMSO solvate] | – | – | dsRNA signal, AU High [2]: 10918.5; dsRNA signal, AU Low [2]: 24279.8
21 | NC(=S)N/N=C/c1ncccc1N [Triapine] | 0.0 | 17637.1 | –
22 | CC(C)(C)c1cc(C=C(C#N)C#N)cc(C(C)(C)C)c1O [Tyrphostin 9] | 58.0 | 17328.1 | –
23 | CC(C)(C)c1cc(/C=C(\C#N)C(N)=S)cc(C(C)(C)C)c1O [Tyrphostin AG 879] | 54.0 | 6760.3 | –
24 | COc1cc2ncc(-c3ccccc3)nc2cc1OC [Tyrphostin AG 1296] | 2647.7 | 18881.3 | –
25 | CCCCNc1ncc2c(-c3ccc(CN4CCN(C)CC4)cc3)cn([C@H]3CC[C@H](O)CC3)c2n1 [UNC2025] | 55553.7 | 67297.4 | –
26 | CCCCNc1ncc(C(=O)NCc2ccc(-n3ccnc3)cc2)c(NC2CCC(O)CC2)n1 (stereo not shown) [UNC2881] | 446.4 | 42094.2 | –
27 | CN1CCN(Cc2ccc(-c3cnc4[nH]cc(-c5ccc6[nH]ccc6c5)c4c3)cc2)CC1 [URMC-099] | 20784.2 | 7905.7 | –
28 | O.O.O.O=C(O)c1ncccc1O.O=C(O)c1ncccc1O.[O]=[V] [VO-Ohpic trihydrate] | 28838.2 | 7631.3 | –
29 | c1cncc(CN2CCC(n3ncc4c(N5CCOCC5)nc(-c5ccc6[nH]ccc6c5)nc43)CC2)c1 [WAY-600] | 1003.4 | 67106.4 | –
30 | COc1cc2ncnc(Nc3ccc(O)c(Br)c3)c2cc1OC [WHI-P154] | 5163.1 | 0.0 | –
31 | CNC(=O)Nc1ccc(-c2nc(N3CC4CCC(C3)O4)c3cnn(C4CCC5(CC4)OCCO5)c3n2)cc1 [WYE-125132 (WYE-132)] | 4894.7 | 21738.1 | –
32 | C=CC(=O)Nc1cccc(Oc2nc(Nc3ccc(N4CCN(C)CC4)cc3)ncc2Cl)c1 [WZ3146] | 23148.6 | 16337.5 | –
33 | CCC(=O)Nc1cccc(Oc2nc(Nc3ccc(N4CCN(C)CC4)cc3OC)ncc2Cl)c1 [WZ4003] | 30589.4 | 38446.0 | –
34 | COc1cc(O)c2c(c1)oc(=O)c1c3cc(O)c(O)cc3oc21 [Wedelolactone] | 9001.4 | 16105.5 | –
35 | COc1ccc(Cl)c(Nc2nc3ccccc3nc2NS(=O)(=O)c2cccc(NC(=O)C(C)(C)N)c2)c1 [XL147] | 6847.8 | 47539.1 | –
36 | Cc1c(C(=O)N2CCOc3ccc(-c4ccc(N)nc4)cc3C2)ccc(S(C)(=O)=O)c1F [XL388] | 5203.5 | 16443.4 | –
37 | CCOc1cc(N2CCC(O)CC2)ccc1Nc1ncc2c(n1)N(C)c1ccccc1C(=O)N2C [XMD8-92] | 359.5 | 30524.1 | –
38 | C[C@@H](N)[C@H]1CC[C@H](C(=O)Nc2ccncc2)CC1 [Y-27632] | 3508.5 | 46665.7 | –

Row | Compound | dsRNA signal, AU High [2, 5] [AU] | dsRNA signal, AU Low [2, 6] [AU] | further results
39 | Cc1cc(C)nc(NS(=O)(=O)c2ccc(NC(=S)NC(=O)COc3ccc(Br)cc3Cl)cc2)n1 [ZCL278] | 9541.3 | 41590.0 | –
40 | CC(C)N(CCC(=O)c1ccc2ccccc2c1)Cc1ccccc1.Cl [ZM 39923 HCl] | 21395.1 | 2858.2 | –
41 | FC(F)c1nc2ccccc2n1-c1nc(N2CCOCC2)nc(N2CCOCC2)n1 [ZSTK474] | 6069.9 | 23073.5 | –
42 | CO[C@H]1C[C@@H]2CC[C@@H](C)[C@@](O)(O2)C(=O)C(=O)N2CCCC[C@H]2C(=O)O[C@H]([C@H](C)C[C@@H]2CC[C@H](n3cnnn3)[C@H](OC)C2)CC(=O)[C@H](C)/C=C(\C)[C@@H](O)[C@@H](OC)C(=O)[C@H](C)C[C@H](C)/C=C/C=C/C=C/1C [Zotarolimus(ABT-578)] | 11435.6 | 1864.8 | –
43 | AG-18 | 29672.3 | 14434.9 | –
44 | AZD4547 | 14827.8 | 3634.0 | –
45 | Anacardic acid | 12779.5 | 44703.4 | –
46 | CHIR-98014 | – | – | dsRNA signal, AU High [2]: 63043.9; dsRNA signal, AU Low [2]: 37241.6
47 | Ginkgolide C | 4330.9 | 14963.6 | –
48 | HG-10-102-01 | 14367.4 | 32713.5 | –
49 | IC-87114 | 0.0 | 60540.6 | –
50 | KN-92 | 8269.0 | 30018.5 | –
51 | KN-93 | 14156.8 | 6603.8 | –
52 | SC 79 | 17618.8 | 5138.7 | –
53 | TA 01 | 672.4 | 13985.5 | –
54 | Telatinib (BAY 57-9352) | 46565.4 | 19646.6 | –
55 | VX-11e | 6059.4 | 11825.4 | –
56 | kb NB 142-70 | 958.0 | 2847.9 | –
